Series [1] deals with HCoV-OC43. Kind of series: microbe, parasite or virus in culture. Type of series: cell-based. The conditions noted are these: for IC50: read-out: IC50, HCoV-OC43 antiviral assay.
Series [2] concerns the target c-Kit enzyme (Homo sapiens, UniProt P10721). Kind of series: Luminescence-based in vitro c-Kit kinase assay. Type of series: biochemical.
Series [3] relates to A549 cells. The conditions noted are these: human.
Series [4] concerns the target SARS-CoV-2 M^pro (Severe acute respiratory syndrome coronavirus 2, UniProt P0DTD1). Put plainly: cell-based. Conditions: transfected HEK-293T cells, 24 h; for IC50: read-out: IC50 (approximate), SARS-CoV-2 M^pro activity, GFP normalized to TagBFP2.
Series [5] has as its system A549 cells. Kind of series: Compound toxicity assay, live cell imaging of A549 cell growth. Conditions: compared to DMSO.
Series [6] addresses M^pro. The conditions noted are these: masitinib activity on M^pro; read-out: inhibition constant, Ki; cited from earlier work.
[7] abbreviates: A549+hACE2 cells, MOI 0.1, 48 h, normalized to DMSO.

This is an account of results in paper PMC10536273, “Development of Masitinib Derivatives with Enhanced M^pro Ligand Efficiency and Reduced Cytotoxicity” (Molecules, 2023).

For orientation: IC50 means the midpoint of a concentration-inhibition curve. For orientation: Ki means a dissociation constant, usually derived from enzyme kinetics or from competition with a known ligand.

Structures can show the parent of a compound that is named as a salt. Where two headings read alike, the source gives them in different places.

Sequence of c-Kit enzyme (P10721 26-976): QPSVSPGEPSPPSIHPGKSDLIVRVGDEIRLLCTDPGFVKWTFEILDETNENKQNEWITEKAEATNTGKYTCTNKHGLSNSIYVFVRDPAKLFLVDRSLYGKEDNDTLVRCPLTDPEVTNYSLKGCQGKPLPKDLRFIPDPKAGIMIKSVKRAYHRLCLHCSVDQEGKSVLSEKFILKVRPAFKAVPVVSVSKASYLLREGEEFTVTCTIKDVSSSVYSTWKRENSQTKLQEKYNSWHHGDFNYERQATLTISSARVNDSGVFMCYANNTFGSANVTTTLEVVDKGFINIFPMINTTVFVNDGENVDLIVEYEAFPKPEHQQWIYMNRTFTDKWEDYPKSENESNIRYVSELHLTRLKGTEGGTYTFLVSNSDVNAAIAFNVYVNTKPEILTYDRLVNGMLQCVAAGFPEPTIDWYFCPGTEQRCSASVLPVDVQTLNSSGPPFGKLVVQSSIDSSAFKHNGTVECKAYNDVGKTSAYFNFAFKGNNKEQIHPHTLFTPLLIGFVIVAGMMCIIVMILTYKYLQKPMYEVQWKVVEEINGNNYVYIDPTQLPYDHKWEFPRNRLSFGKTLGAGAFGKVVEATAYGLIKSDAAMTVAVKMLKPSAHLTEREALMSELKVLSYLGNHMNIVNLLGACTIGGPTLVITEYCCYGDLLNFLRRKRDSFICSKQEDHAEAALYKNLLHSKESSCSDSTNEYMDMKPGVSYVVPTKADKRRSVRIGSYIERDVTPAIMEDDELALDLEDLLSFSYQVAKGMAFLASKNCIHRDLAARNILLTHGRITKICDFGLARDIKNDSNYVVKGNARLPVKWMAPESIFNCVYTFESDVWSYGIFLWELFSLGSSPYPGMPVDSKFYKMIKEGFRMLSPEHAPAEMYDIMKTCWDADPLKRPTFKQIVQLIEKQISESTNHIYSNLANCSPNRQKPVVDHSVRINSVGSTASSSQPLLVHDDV

Consider `Cc1ccc(NC(=O)c2ccc(CN3CCN(C)CC3)c(O)c2)cc1Nc1nc(-c2cccnc2)cs1` [M1], for which the IC50 was 4.7 µM in series [1] (Betacoronavirus 1, OC43, 48 h) and 1.09 µM in series [2]. Further, the “Doubling Time” value in series [3] (0.3 µM) is 21.75 h; in series [3] (1 µM), 21.89 h; in series [3] (3 µM), 23.72 h; in series [3] (10 µM), 52.78 h. For the same compound, the “IC50 (approximate), SARS-CoV-2 M^pro activity, GFP normalized to TagBFP2” value in series [4] is “did not show inhibition of M^pro activity”.

Regarding `Cc1ccc(NC(=O)c2ccc(CN3CCN(C)CC3)cc2O)cc1Nc1nc(-c2cccnc2)cs1` [M2], the IC50 in series [1] (Betacoronavirus 1, OC43, 48 h) was determined as 6.77 µM; in series [2], 0.233 µM; in series [4] it was 8.35 µM. In addition, the “Doubling Time” value in series [3] (0.3 µM) came out at 21.52 h; in series [3] (1 µM), 21.44 h; in series [3] (3 µM) it was 21.57 h; in series [3] (10 µM), 33.63 h.

As for `Cc1ccc(C(=O)Nc2ccc(C)c(Nc3nc(-c4cccnc4)cs3)c2)cc1` [M3], the IC50 turned out to be 3.99 µM in series [1] (Betacoronavirus 1, OC43, 48 h); 0.077 µM in series [2]; 2.54 µM in series [4]. Besides, the “Doubling Time” value came to 22.13 h in series [3] (0.3 µM), 21.49 h in series [3] (1 µM), 22.49 h in series [3] (3 µM) and 30.76 h in series [3] (10 µM).

Regarding `CC(=O)Nc1ccc(C)c(Nc2nc(-c3cccnc3)cs2)c1` [M4], the IC50 in series [1] (Betacoronavirus 1, OC43, 48 h) is 5.7 µM. Also, the “Doubling Time” value was found to be 22.01 h in series [3] (0.3 µM), 21.47 h in series [3] (1 µM), 22.28 h in series [3] (3 µM) and 37.36 h in series [3] (10 µM).

As for `Cc1ccc(OC(=O)c2ccc(CN3CCN(C)CC3)cc2)cc1Nc1nc(-c2cccnc2)cs1` [M5], the “IC50, HCoV-OC43 antiviral assay” value in series [1] (setting [7]) is given as “no measurable antiviral activity”. In addition, the “Doubling Time” value is 22.37 h in series [3] (0.3 µM), 21.95 h in series [3] (1 µM), 21.83 h in series [3] (3 µM) and 25.19 h in series [3] (10 µM).

For `Cc1ccc(NC(=O)c2ccc(CN3CCN(C)CC3)cc2)cc1Nc1nc(-c2cccnc2)cs1` [masitinib (Original), masitinib], in series [1] (Betacoronavirus 1, OC43, 48 h), the half-inhibitory concentration (IC50) was found to be 1.71 µM.

As to `Cc1ccc(NC(=O)c2ccc(CN3CCN(C)CC3)cc2)cc1Nc1nc(-c2cccnc2)cs1` [masitinib (TFA), Masitinib trifluoroacetate salt], in series [1] (setting [7]), the IC50 stood at 3.98 µM. Moreover, the entries for the “effect on cell growth (in words)” value in series [5] (3 µM dose) and in series [5] (10 µM compound dose) were “still inhibited cell division” and “completely inhibited cell growth”, respectively.

Regarding `Cc1ccc(NC(=O)c2ccc(CN3CCN(C)CC3)cc2)cc1Nc1nc(-c2cccnc2)cs1` [masitinib], in series [6], the Ki is 2.6 µM.
